Where two headings read alike, the source gives them in different places.
Tests used:
[1] = target: T1, human serotonin 5-HT6 receptor (Homo sapiens, UniProt P50406); assay: cAMP 5-HT6 functional assay; assay type: cell-based
T1 construct: host or cells: 1321N1
Description: Functional assays for 5-HT6 receptor
Test compounds were dissolved in dimethyl sulfoxide (DMSO) at a concentration of 10 mM.
Serial dilutions were prepared in a 96-well microplate in assay buffer, and 8 concentrations
were tested. For the 5-HT6, adenylyl cyclase activity was monitored using cryopreserved
cells were resuspended in stimulation buffer (HBSS, 5 mM HEPES, 0.5 IBMX, and 0.1%
BSA at pH 7.4) at 2x10^5 cells/ml. The same volume (10 μl) of cell suspension was added to
the tested compounds. Samples were loaded onto a white opaque half-area 96-well
reference agonist for the 5-HT6 receptor. The agonist and antagonist were added
simultaneously. Cell stimulation was performed for 30 minutes at room temperature. After
incubation, cAMP measurements were performed with homogeneous TR-FRET immunoassay
using the LANCE Ultra cAMP kit (PerkinElmer, USA). The volume of 10 μl of EucAMP
Tracer Working Solution and 10 μl of ULight-anti-cAMP Tracer Working Solution were
added, mixed, and incubated for 1 h. The TR-FRET signal was read on an EnVision
microplate reader (PerkinElmer, USA). IC 50 and EC 50 were determined by nonlinear

[2] = Cell viability, PrestoBlue (neurotoxicity); assay type: cell-based; conditions: mouse, 24 h, read-out: viability, neurotoxicity X [%]
Description: (§1) Mouse Hippocampal Neuronal (HT-22) were cultured in Dulbecco's modified Eagle's Medium - high glucose (DMEM, Glutamx Thermo Fisher) supplemented with 10% inactivated fetal bovine serum heat (Thermo Fisher), 100 IU/ml penicillin (Sigma Aldrich) and 100 µg/ml streptomycin (Merck). Cells were cultured in flasks (area 75 cm2, Nunc), and incubated at 37°C, 5% CO2. For the measurement of cell viability cells were placed in a 96-well culture plate (2x10^4 cells per well, Falcon). Before the tests, cells were grown for 24 hours in the incubator (37°C, 5% CO2).
(§2) Preparation of stock solutions of tested compounds
(§3) Stock solutions were prepared in the concentration of 10 mM for test and reference compounds. Minimum 1 mg of each tested compound was weighed and dissolved in appropriate volume of dimethyl sulfoxide. Serial dilutions were prepared in DMSO and then the diluted compounds were transferred to PBS. Before assays eventual precipitation or opalescence was checked. All experiments were performed in duplicates, in three independent experiments. Cell viability was measured after 24 hours of incubation with tested cell line.
(§4) Cell viability was evaluated using the Presto Blue reagent (Thermo Fisher), according to the manufacturer procedures. Following 24 hours of incubation with the tested molecule, PrestoBlue reagent was added to a microplate well in an amount equal to one tenth of the remaining medium volume. The resulting mixture was incubated for 15 minutes at 37°C, and the fluorescence intensity (EX 530; EM 580 nm) was measured in the plate reader POLARstar Omega, (BMG Labtech). The results (viability values) are provided as a percentage of live cells with respect to DMSO (control sample).
(§5) Viability values were calculated as a percentage of live cells with respect to the control sample (DMSO). The negative control was medium without cells. IC 50 was determined by […]
(§6) nonlinear regression analysis using GraphPad Prism 9.0 software. All values are expressed as […]
(§7) Table S10. The viability of cells. neurotoxicity immuntoxicity
(§8) The results (viability values) are provided as a percentage of live cells with respect to DMSO (control sample)
(§9) Table S11. The viability of cells.

[3] = system: Mouse Hippocampal Neuronal (HT-22); assay: Cell viability, PrestoBlue (neurotoxicity); assay type: cell-based; conditions: Mus musculus, HT-22, 24 h
Description: as §1, §2, §3, §4, §5, §6, §7, §8, §9

[4] = system: Human neuroblastoma cells SH-SY5Y; assay: MTT cell viability assay, SH-SY5Y; assay type: cell-based; conditions: Homo sapiens, 24 h, read-out: IC50 (MTT) ± SEM
Excerpt: Human neuroblastoma cells SH-SY5Y and mouse microglial cells SIM-A9 were used to evaluate cell viability, intracellular RONS, and malondialdehyde (MDA; CAS No. 542–78-9).
SH-SY5y cells were cultivated in Dulbecco's modified Eagle's medium (DMEM; Biosera, Nuaille, France) supplemented with 10% fetal bovine serum (Biosera) and 1% penicillin-streptomycin antibiotic solution (Sigma-Aldrich, St. Louis, MO, USA). The culture medium for SIM-A9 cells was further supplemented with donor horse serum (Biosera). The cells were incubated at 37 °C in a CO2 incubator (BINDER CO2 incubator CB 160, Tuttlingen, Germany) and routinely passaged by trypsinization at 75 –85% confluence.
Colorimetric Cell Viability Assay
The toxicological indices IC 50 used in the present study were measured utilizing 3-(4,5-dimethylthiazol-2-yl)-2,5-diphenyl-tetrazolium bromide (MTT) reduction assay after (1 picture or pasted object on this page, not shown here)
24 h incubation with tested compounds. […]
incubation, the cultivation medium containing serially diluted substances was aspirated and replaced with a fresh medium containing MTT at a concentration of 0.5 mg/mL and subsequently incubated at 37 °C for 1 h. […] Cell viability was assessed spectrophotometrically by the amount of formazan produced. Absorbance was measured at 570 nm with 650 nm reference wavelength on Spark (Tecan Group Ltd, Switzerland). […]

SH-SY5Y cells = assay: LC-MS determination of total MDA, SH-SY5Y; assay type: cell-based, human; conditions: all time intervals
SIM-A9 cells = assay: LC-MS determination of total MDA, SIM-A9; assay type: cell-based, mouse; conditions: all time intervals

T1 sequence (P50406 whole entry): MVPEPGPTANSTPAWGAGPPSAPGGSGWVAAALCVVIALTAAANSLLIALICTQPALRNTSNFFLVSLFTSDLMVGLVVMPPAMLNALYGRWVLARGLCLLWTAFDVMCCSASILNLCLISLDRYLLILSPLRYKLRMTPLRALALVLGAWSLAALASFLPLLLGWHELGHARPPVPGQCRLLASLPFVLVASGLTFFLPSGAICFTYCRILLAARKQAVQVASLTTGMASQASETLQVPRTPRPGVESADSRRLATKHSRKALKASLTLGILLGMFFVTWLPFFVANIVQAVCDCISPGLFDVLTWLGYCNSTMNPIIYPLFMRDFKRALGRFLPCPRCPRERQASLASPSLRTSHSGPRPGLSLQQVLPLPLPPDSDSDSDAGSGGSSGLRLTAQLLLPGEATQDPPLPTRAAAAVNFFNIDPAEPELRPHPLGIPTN

Work on `O[C@H](CNCC1CC1)[C@H](Cc1ccccc1)NC1c2ccccc2-c2ccccc21` [Compound 6] yielded an EC50 [1] of 2.42 µM, an Emax ([1]; read-out: 5-HT6 agonist mode E max % [10^-5 M]) of 41% and an Emax ([1]; read-out: 5-HT6 antagonist mode E max %) of 3%. For the same molecule, the viability at 24 h, 0.1 µM ([2]; HT-22, 0.1 µM) was 99%, the viability at 24 h, 1 µM ([2]; HT-22, 1 µM) was 100% and the viability at 24 h, 10 µM ([2]; HT-22, 10 µM) was 99%. It also gave a viability at 24 h, 50 µM ([2]; HT-22, 50 µM) of 9.5%, a viability at 24 h, 100 µM ([2]; HT-22, 100 µM, vs DMSO) of 1.7% and an IC50 ([3]; read-out: NEUROTOXICITY IC50) of 23.1 µM. The IC50 ([3]; read-out: NEUROTOXICITY pIC (converted)) was 22.9 µM, the IC50 [4] was 3.38 ± 0.04 µM and the “increase in intracellular level of MDA” value (SH-SY5Y cells) was “no significant increase”. The “increase in intracellular level of MDA” value (SIM-A9 cells) was “no significant increase”.
